Experiment [1] relates to Drosophila ey-Gal4>DI flies. The experiment in a line: Drosophila DAPT treatments of flies overexpressing Delta (ey-Gal4>DI). In kind it is in vivo. An excerpt: FIG. 16. Inhibition of NOTCH signaling with GSI can suppress overgrowth caused by overexpression of Delta in vivo. (a) Quantification of NOTCH-like eye growth phenotypes associated with treatment with the presenilin/γ-secretase inhibitor DAPT in flies that overexpressed the NOTCH ligand Delta, during the proliferation phase of eye development. Genotype is ey-Gal4 UAS-DI (hereafter, ey-Gal4>DI). (b) Quantification of other NOTCH-like wing phenotypes (loss of wing margin and small wing size) in the ey-Gal4>DI treated animals. For each of the DAPT concentrations shown, the number of eyes and wings quantified were: n=215 (0 mM of DAPT), n=202 (0.25 mM), n=455 (0.5 mM) and n=318 (1 mM). Representative data from two independent experiments are shown.
Drosophila DAPT treatments. The γ-secretase inhibitor DAPT prevents NOTCH processing, translocation and signaling in cell culture and induces developmental defects in Drosophila similar to those caused by genetic reduction of NOTCH signaling. Stock solutions of the compound in ethanol were added to 2.5 ml of distilled water and dried potato food were prepared. Flies carrying a Delta transgene (UAS-DI) and the eye-specific Gal4 driver, ey-Gal4 (hereafter, ey-Gal4>DI) were kept on standard fly food at 26° C. for 3 days (72 hours) and the progeny were collected and transferred to the vials containing the food mixed with DAPT and allowed to progress through development in the presence of DAPT until closure.

The next experiment has as its system PTEN. The experiment in a line: Real-time PCR analysis of PTEN transcript levels upon NOTCH1 inhibition by GSI. In kind it is cell-based, human. The following applies: GSI-sensitive/PTEN-positive cells (CUTLL1, HPB-ALL). The source says:
(§1) FIG. 3. NOTCH1 regulates PTEN expression, AKT signaling and glucose metabolism. (a) Real-time PCR analysis of PTEN transcript levels upon NOTCH1 inhibition by GSI in CUTLL1 and HPB-ALL relative to (DMSO) controls. GAPDH levels were used as reference control. (b) Western blot analysis of PTEN and p-AKT (Ser473) in GSI sensitive T-ALL cell lines treated with CompE. AKT and α-Tubulin are shown as loading controls. (c) Real-time PCR analysis of Hes1 and PTEN expression in mouse DN3 thymocytes cocultured with stromal cells (OP9) or stromal cells expressing the NOTCH1 ligand Delta-like-1 (OP9-DL1). Data are means +/− standard deviation of duplicate (day 1) and triplicate (day 2) experiments. […]
Total RNA from T-ALL cell lines was extracted with RNAqueous kit (Ambion) following the manufacturer's instructions. cDNA was generated with the ThermoScript RT-PCR system (Invitrogen) and analyzed by quantitative real-time PCR (SYBR Green RT-PCR Core Reagents kit and the 7300 Real-Time PCR System, both from Applied Biosystems). Similar procedures were used to analyze RNA from DN3 cells purified from OP9 cocultures: Trizol method (Invitrogen) for RNA isolation, Omniscript RT kit (Qiagen) for cDNA synthesis and QuantiTect SYBR Green PCR kit (Qiagen) and the Applied Biosystems Sequence Detection System 7000 for PCR. […]
A general note: In qPCR the cycle at which signal appears reflects the starting amount.

The subject of experiment [2] is CUTLL1 cells. The experiment in a line: Cell size (flow cytometry) and cell growth (MTT) assays in CUTLL1 cells. The format is cell-based, human. Conditions: CompE 100 nM for 4 days. As to the method: (§2) FIG. 2. PTEN loss and AKT activation induce GSI resistance in T-ALL. […] No protective effect was observed by expression of a control shRNA targeting the luciferase gene (shRNA LUC). Mean FSC-H values for GSI and vehicle only treatment controls are indicated. Bar graphs represent means +/− standard deviation of triplicate samples. P values were derived from Student's t-test.
(§3) Changes in cell size were monitored by flow cytometry after NOTCH1 inactivation by GSI treatment (CompE 100 nM) and upon lentiviral shRNA knock-down of NOTCH1. Cell growth ratios were determined by a colorimetric assay using the Cell Proliferation Kit I (MTT) (Roche) in cells treated with inhibitors or vehicle treated controls.
In general terms: A flow cytometer gives signals particle by particle.

The subject of a further experiment is p-AKT (Ser473). The experiment in a line: Western blot analysis of PTEN and p-AKT (Ser473) in GSI sensitive T-ALL cell lines. The format is cell-based, human. Conditions: GSI-sensitive/PTEN-positive T-ALL cell lines.
Text: as §1, with “experiments. (d) Glucose uptake analysis in HPB-ALL and P12ICHIKAWA T-ALL cell lines in basal conditions (vehicle treatment only). (e) Glucose oxidation analysis in HPB-ALL and P12-ICHIKAWA T-ALL cell lines in basal conditions (vehicle treatment only). (f) Effects of GSI treatment in glucose uptake in HPB-ALL and P12-ICHIKAWA T-ALL cells. (g) Effects of GSI treatment in glucose oxidation in HPB-ALL and P12-ICHIKAWA T-ALL cells. Data shown in (d) and (f) are means +/− standard deviation of triplicates. Data shown in (e) and (g) are means +/− standard deviation of duplicates. P values in (a) and (c)-(g) were derived from Student's t-test.” for “experiments.”
(In general: In western blotting, separated proteins are transferred to a membrane and probed.)

For another experiment, the system named is NOTCH1 processing. The experiment in a line: Western blot analysis of activated NOTCH1 (NOTCH1IC) in GSI-sensitive and GSI-resistant T-ALL cell lines. In kind it is cell-based, human. The following applies: Comp E 100 nM, 24 hours. As to the method: FIG. 7. CompE treatment effectively blocks NOTCH1 processing in GSI-sensitive and resistant T-ALL cells. Western blot analysis of activated NOTCH1 (NOTCH1IC) levels in GSI-sensitive and resistant cell lines after 24 hours treatment with Comp E (100 nM). α-Tubulin levels are shown as loading control. Lower molecular weight bands correspond to activated NOTCH1 protein in cell lines harboring mutations that result in C-terminal truncations of the PEST domain (NOTCH 1IC-ΔPEST).
(§4) Antibodies against activated NOTCH1 (Val1744, Cell Signaling); PTEN (clone 6H2.1, Cascade Biosciences), phospho-AKT (Ser473), AKT (Cell Signaling), LC3, and α-tubulin (TU-02, Santa Cruz Biotechnology) were used according to standard procedures. PTEN immunostaining of formalin-fixed paraffin-embedded tissue sections was performed after heat-induced epitope retrieval in a microwave in citrate buffer (pH6.0). PTEN antibody (Zymed) was used at a 1:50 dilution. Slides were incubated at room temperature overnight before antigen detection using a Ventana automated staining platform (Ventana) and diaminobenzidine (DAB) detection.

A further experiment relates to DND41 cells. The experiment in a line: Cell size (flow cytometry) and cell growth (MTT) assays in DND41 cells. The following applies: CompE 100 nM for 4 days. In kind it is cell-based, human. The method, then:
as §2, §3

The test system of experiment [3] is CUTLL1 cells. The experiment in a line: Autophagy analysis (electron microscopy, LC3 Western blot) in CUTLL1 cells. The format is cell-based, human. The method, then:
FIG. 11. […] (a, b) Transmission electron microscopy analysis of an early pass culture of CUTLL1 cells treated with vehicle control (DMSO) or GSI ([…] CompE) for 6 days. White arrow heads indicate phagosomes. Black arrowheads indicate mitochondria. (c) Quantitation of double membrane structures excluding mitochondria in control (DMSO) and GSI (CompE)-treated cells. Horizontal lines indicate the median. P values were derived from the Wilcoxon rank sum test. (d) Western blot analysis of the phagosome-associated LC3 protein in CUTLL1 cells treated with DMSO or CompE for 48 hours.
as §4
Electron microscopy. […] Double membrane structures, excluding mitochondria, were counted in sample preparations of an early-pass culture of CUTLL1 cells treated with DMSO or CompE (500 nM) for 6 days.

A further experiment relates to DELTEX1. The experiment in a line: Quantitative RT-PCR analysis of DELTEX1 expression in GSI-sensitive and resistant T-ALL cell lines. The format is cell-based, human. The following applies: Comp E 100 nM, 24 hours. As to the method: FIG. 8. CompE treatment effectively down regulates the expression of DELTEX1 in GSI-sensitive and resistant T-ALL cells. (a and b) Quantitative RT-PCR analysis of DELTEX1 expression in GSI-sensitive and resistant cell lines after 24 hours of treatment with Comp E (100 nM). Relative expression levels were calculated by the ΔΔCt method using GAPDH as a reference control. Data are means +/− standard deviation.
Total RNA from T-ALL cell lines was extracted with RNAqueous kit (Ambion) following the manufacturer's instructions. cDNA was generated with the ThermoScript RT-PCR system (Invitrogen) and analyzed by quantitative real-time PCR (SYBR Green RT-PCR Core Reagents kit and the 7300 Real-Time PCR System, both from Applied Biosystems). Similar procedures were used to analyze RNA from DN3 cells purified from OP9 cocultures: Trizol method (Invitrogen) for RNA isolation, Omniscript RT kit (Qiagen) for cDNA synthesis and QuantiTect SYBR Green PCR kit (Qiagen) and the Applied Biosystems Sequence Detection System 7000 for PCR. Relative expression levels were based on GAPDH and β-actin as reference controls.

Another experiment deals with HPB-ALL cells. The experiment in a line: Glucose uptake and oxidation in HPB-ALL cells. The format is cell-based, human. The following applies: CompE 100 nM for 96 hours.
Text: as §1, with “experiments. (d) Glucose uptake analysis in HPB-ALL and P12ICHIKAWA T-ALL cell lines in basal conditions (vehicle treatment only). (e) Glucose oxidation analysis in HPB-ALL and P12-ICHIKAWA T-ALL cell lines in basal conditions (vehicle treatment only).” for “experiments.”
(§5) Glucose uptake and oxidation were analyzed in T-ALL cells treated with GSI (CompE 100 nM for 96 hours) or vehicle only (DMSO) controls. […] For glucose uptake, cells were incubated with 0.1 mM (2 μCi/ml) 2-[3H]-deoxy-glucose, then washed in cold PBS and solubilized in 0.1% SDS and analyzed by scintillation counting. […] Glucose oxidation was measured as the amount of ^14CO2 captured in glass fiber filters previously soaked in 5% KOH. […]

For another experiment, the system named is P12ICHIKAWA cells. The experiment in a line: Glucose uptake and oxidation in P12-ICHIKAWA cells. The format is cell-based, human. Conditions: CompE 100 nM for 96 hours.
Text: as §1, with “experiments. (d) Glucose uptake analysis in HPB-ALL and P12ICHIKAWA T-ALL cell lines in basal conditions (vehicle treatment only). (e) Glucose oxidation analysis in HPB-ALL and P12-ICHIKAWA T-ALL cell lines in basal conditions (vehicle treatment only).” for “experiments.”
as §5

The mark [4] stands for this setting: non-lethal doses (1 mM) in food.

Structures are written as SMILES. Entries after “also recorded” stand apart in the source; their conditions may differ.

Consider `C[C@H](NC(=O)Cc1cc(F)cc(F)c1)C(=O)N[C@H](C(=O)OC(C)(C)C)c1ccccc1` [DAPT, N-[N-(3,5-difluorophenacetyl)-L-alanyl]-Sphenylglycine-t-butylester], for which, in [1] (ey-Gal4>DI flies, DAPT in food), the “eye growth induced by Delta overexpression” value is listed as “suppression of eye overgrowth; also recorded: prevented eye growth induced by Delta overexpression” and the wing phenotype entry was “wing defects equivalent to a genetic reduction of NOTCH activity”. In experiment [1] (setting [4]), the Delta-induced eye overgrowth entry is given as “inhibits Delta-induced overgrowth”; the “eye and wing size” value is “eyes and wings smaller than wild type”.
For `C[C@H](NC(=O)Cc1cc(F)cc(F)c1)C(=O)N[C@H]1N=C(c2ccccc2)c2ccccc2N(C)C1=O` [CompE, (2S)-2-{[(3,5-Difluorophenyl)acetyl]amino}-N-[(3S)1-methyl-2-oxo-5-phenyl-2,3-dihydro-1H-1,4-benzodiazepin-3-yl]propanamide], the “PTEN expression (transcript levels)” value in the experiment on PTEN was “significant upregulation of PTEN expression”. Moreover, in the experiment with CUTLL1 cells [2], the cell growth entry is given as “decreased cell growth” and the “cell size (FSC-H)” value is on record as “Decreased cell size”. Also, in the experiment on p-AKT (Ser473), the “AKT Ser473 phosphorylation” value was “decreased Ser473 phosphorylation on AKT”. For the same compound, the “NOTCH1 processing (activated NOTCH1, NOTCH1IC levels)” value in the experiment with NOTCH1 processing is on record as “effectively block NOTCH1 processing in all cell lines; also recorded: showed NOTCH1 inhibition”. In addition, in the experiment with DND41 cells, the cell growth entry is “reduced cell growth” and the cell size entry is “cell size defects”. For the same compound, in the experiment with CUTLL1 cells [3] (500 nM CompE for 6 days), the “autophagy (transmission electron microscopy, double membrane structures)” value is “induces autophagy”. Further, the “phagosome-associated LC3 protein (Western blot)” value with CUTLL1 cells [3] (CompE for 48 hours) is “induced the LC3-II isoform”. Also, the “NOTCH1 signaling (DELTEX1 expression)” value in the experiment with DELTEX1 was “effectively blocks NOTCH1 signaling and downregulates the expression of genes directly regulated by NOTCH1”. In addition, in the experiment with HPB-ALL cells, the glucose oxidation result is “significant reductions” and the glucose uptake entry is listed as “significant reductions”. Also, in the experiment with P12ICHIKAWA cells, the glucose oxidation result is “not affected” and the glucose uptake result is given as “not affected”.

For the origin of these results see patent publication US20110118192A1, “METHODS AND COMPOSITIONS FOR TREATING T-CELL LEUKEMIA” (priority 2007, published 2011).
